One experiment deals with pain. As to conditions: mice; cited from earlier work.
Experiment [1] has as its target T1, α6β4^L121F (human α6β4 nAChR, L121F in β4) (Homo sapiens, UniProt P30926+Q15825, L142F). As to conditions: L121F vs WT, two-electrode voltage clamp. A general note: Two-electrode voltage clamp is typically applied to oocytes expressing channels or transporters.
In experiment [2] the target is T1, α6β4^L121F (human α6β4 nAChR, L121F in β4). As to the kind of experiment: cell-based.
Experiment [3] deals with human α6β4 nAChR (α6β4^WT) (Homo sapiens, UniProt P30926+Q15825). Briefly: Two-electrode voltage clamp in Xenopus oocytes, wild-type α6β4. The format is cell-based. As to conditions: times higher affinity than nicotine.
Sequence of human α6β4 nAChR (α6β4^WT) (Q15825 31-494 limits assumed): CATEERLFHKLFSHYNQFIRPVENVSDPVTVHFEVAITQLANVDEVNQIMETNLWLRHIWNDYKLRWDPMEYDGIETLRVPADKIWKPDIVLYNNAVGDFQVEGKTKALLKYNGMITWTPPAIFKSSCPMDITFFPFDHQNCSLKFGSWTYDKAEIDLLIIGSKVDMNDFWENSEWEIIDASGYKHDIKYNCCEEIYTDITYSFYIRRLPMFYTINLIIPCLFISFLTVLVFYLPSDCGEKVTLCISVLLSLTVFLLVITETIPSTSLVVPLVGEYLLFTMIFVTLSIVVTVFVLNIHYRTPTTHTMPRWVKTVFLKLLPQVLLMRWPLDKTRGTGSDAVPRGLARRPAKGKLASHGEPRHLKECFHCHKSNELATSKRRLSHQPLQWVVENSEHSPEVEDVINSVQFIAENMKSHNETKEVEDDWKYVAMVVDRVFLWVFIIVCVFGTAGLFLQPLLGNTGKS
Sequence of human α6β4 nAChR (α6β4^WT) (P30926 22-498): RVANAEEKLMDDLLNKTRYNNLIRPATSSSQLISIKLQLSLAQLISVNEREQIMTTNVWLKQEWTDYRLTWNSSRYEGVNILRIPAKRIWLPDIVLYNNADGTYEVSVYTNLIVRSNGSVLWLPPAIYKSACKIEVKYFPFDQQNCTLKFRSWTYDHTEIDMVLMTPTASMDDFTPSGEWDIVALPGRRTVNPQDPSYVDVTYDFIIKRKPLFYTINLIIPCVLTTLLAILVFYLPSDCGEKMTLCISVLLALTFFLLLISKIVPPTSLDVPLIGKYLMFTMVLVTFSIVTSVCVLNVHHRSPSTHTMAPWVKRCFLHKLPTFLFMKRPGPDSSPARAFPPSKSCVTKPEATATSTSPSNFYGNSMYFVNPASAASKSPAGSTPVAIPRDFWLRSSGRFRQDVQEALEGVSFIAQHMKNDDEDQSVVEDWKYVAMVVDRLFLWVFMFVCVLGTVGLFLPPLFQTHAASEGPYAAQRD
A further experiment concerns neuropathic pain. As to conditions: cited from earlier work.

T1 sequence (Q15825 31-494 limits assumed): as the sequence (Q15825 31-494 limits assumed) above
T1 sequence (P30926 22-498 L142F): as the sequence (P30926 22-498) above, with L121F counted along it

The term EC50 denotes the midpoint of the concentration-response curve. For the molecule `CN1CCC[C@H]1c1cccnc1` [nicotine], in the experiment on pain, the analgesic effect entry is “effective analgesics”. In addition, in experiment [1], the “increase of binding affinity of α6β4 for nicotine by L121F mutation in β4” value was “approximately 10 fold”. In addition, in experiment [2], the midpoint of the response, the EC50, lay at 2200 ± 400 nM.
With `Clc1ccc(OC[C@H]2CCN2)cn1` [tebanicline, (R)-5-(2-azetidinylmethoxy)-2-chloropyridine], the analgesic effect result in the experiment with pain was “effective analgesics”. The “affinity for α6β4 relative to nicotine” value in experiment [3] is on record as “approximately 50 times”. The “analgesic activity against neuropathic pain” value in the experiment on neuropathic pain is “potent analgesic activity”.
